Laboratory results taken from ChEMBL document CHEMBL3997785, “Optimization of 2-Anilino 4-Amino Substituted Quinazolines into Potent Antimalarial Agents with Oral in Vivo Activity” (J Med Chem, 2017).

Assays:
[1] = Selectivity index, ratio of EC50 for human HepG2 cells to EC50 for Plasmodium falciparum 3D7 asexual blood stage infected in human erythrocytes; assay type: toxicity, cell-based; details: read-out: Ratio EC50
HepG2 = assay: Cytotoxicity against human HepG2 cells assessed as growth inhibition after 48 hrs by Cell Titer-Glo assay; assay type: cell-based; details: HepG2, 48 h
Plasmodium falciparum = assay: Antimalarial activity against Plasmodium falciparum 3D7 asexual blood stage infected in human erythrocytes incubated for 72 hrs by LDH assay; assay type: functional, cell-based; details: 3D7, 72 h

Row | SMILES | selectivity ratio [1] | EC50 (HepG2) | EC50 (Plasmodium falciparum)
1 | CN1CCN(CCNc2nc(Nc3ccc(F)c(Cl)c3)nc3cccnc23)CC1 | 80 | 8.9 µM | 110 nM
2 | FC(F)(F)c1ccc(Nc2nc(NCc3ccccc3)c3ccccc3n2)cc1 |  | 6.4 µM | 105 nM
3 | Fc1ccc(Nc2nc(NCc3ccccc3)c3sccc3n2)cc1 |  | 18.7 µM | 866 nM
4 | Fc1ccc(Nc2nc(NCc3ccccc3)c3ncccc3n2)cc1 | 320 | 18.2 µM | 57 nM
5 | NC(=O)c1ccc(Nc2nc(NCC3CCCO3)c3ccccc3n2)cc1 (stereo unspecified) | 50 | 34.6 µM | 691 nM
6 | CNc1nc(Nc2ccc(F)cc2)nc2ccccc12 | 119 | 16.2 µM | 136 nM
7 | c1ccc2c(NCC3CCCO3)nc(Nc3ccc4c(c3)OCO4)nc2c1 (stereo unspecified) | 51 | 8.6 µM | 169 nM
8 | CN(C)c1nc(Nc2ccc(F)cc2)nc2ccccc12 | 48 | 20.1 µM | 418 nM
9 | Fc1ccc(Nc2nc(NCc3ccccc3)c3ccccc3n2)cc1 | 67 | 5.1 µM | 77 nM
10 | Cc1ccc(Nc2nc(NCc3ccco3)c3ccccc3n2)cc1 | 54 | 5.9 µM | 109 nM
11 | CN1CCN(C(=O)CNc2nc(Nc3ccc(F)cc3)nc3ccccc23)CC1 | 473 | 30.4 µM | 64 nM
12 | Fc1ccc(Nc2nc(NCCN3CCCC3)c3ccccc3n2)cc1 | 343 | 26.5 µM | 77 nM
13 | Cn1cnc2nc(Nc3ccc(F)cc3)nc(NCc3ccccc3)c21 | 7 | 9 µM | 1200 nM
14 | COc1ccc(Nc2nc(NCc3ccco3)c3ccccc3n2)cc1 | 20 | 2.5 µM | 124 nM
15 | CN1CCC(Nc2nc(Nc3ccc(Cl)c(F)c3)nc3cccnc23)CC1 | 39 | 11.1 µM | 283 nM
16 | COc1ccc(Nc2nc(NCC3CCCO3)c3ccccc3n2)c(OC)c1 (stereo unspecified) | 19 | 15.8 µM | 1100 nM
17 | CN(C)CCNc1nc(Nc2ccc(F)cc2)nc2ccccc12 | 267 | 27.9 µM | 104 nM
18 | Brc1ccc(Nc2nc(NCc3ccco3)c3ccccc3n2)cc1 | 153 | 19 µM | 125 nM
19 | CCOc1ccc(Nc2nc(NCc3ccccc3)c3ccccc3n2)cc1 | 29 | 4.5 µM | 159 nM
20 | NC(=O)c1ccc(Nc2nc(NCc3ccco3)c3ccccc3n2)cc1 | 35 | 20 µM | 569 nM
21 | CNc1nc(Nc2ccc(OC)cc2)nc2ccccc12 | 168 | 26.1 µM | 155 nM
22 | COc1cc([C@@H]2c3cc4c(cc3[C@@H](O[C@@H]3O[C@@H]5CO[C@@H](C)O[C@H]5[C@H](O)[C@H]3O)[C@H]3COC(=O)[C@H]23)OCO4)cc(OC)c1O [ETOPOSIDE] |  | 15.9 µM | 
23 | Fc1ccc(Nc2nc(NCCN3CCOCC3)c3ccccc3n2)cc1 | 256 | 30.1 µM | 118 nM
24 | Fc1ccc(Nc2nc(NCc3ccccc3)c3ccncc3n2)cc1 | 33 | 17.8 µM | 539 nM
25 | COc1ccc(Nc2nc(N3CCOCC3)c3ccccc3n2)cc1 | 3 | 25.6 µM | 7700 nM
26 | Fc1ccc(Nc2nc(NCc3ccccc3)c3cccnc3n2)cc1 |  | 12.4 µM | 636 nM
27 | COc1cccc(Nc2nc(NCc3ccco3)c3ccccc3n2)c1OC |  | 20.1 µM | 1300 nM
28 | COc1cccc(Nc2nc(NCC3CCCO3)c3ccccc3n2)c1 (stereo unspecified) | 33 | 7.7 µM | 
29 | CC(O)c1ccc(Nc2nc(NCc3ccco3)c3ccccc3n2)cc1 (stereo unspecified) |  | 12.6 µM | 702 nM
30 | Clc1ccc(Nc2nc(NCc3ccco3)c3ccccc3n2)cc1 | 71 | 7.4 µM | 
